± gives the uncertainty stated by the source.
Assay: xn = mol fraction of the nth substance listed

CCCCCn1cc[n+](C)c1.O=S(=O)([N-]S(=O)(=O)C(F)(F)F)C(F)(F)F + O
100 kPa, x2 = 0.2211
Conditions | viscosity [mPa·s]
313.15 K | 22.15 ± 0.19
318.15 K | 18.86 ± 0.16

CCCC[N+](CCCC)(CCCC)CCCC.O=S(=O)([O-])O + O
viscosity [mPa·s], 101 kPa
Conditions | x1 = 9.009e-05 | x1 = 0.0001802 | x1 = 0.0002702 | x1 = 0.0003603
298.15 K | 0.894 ± 0.008 | 0.896 ± 0.008 | 0.899 ± 0.008 | 0.901 ± 0.008
308.15 K | 0.723 ± 0.007 | 0.726 ± 0.007 | 0.728 ± 0.007 | 0.73 ± 0.007
318.15 K | 0.602 ± 0.006 | 0.603 ± 0.006 | 0.605 ± 0.006 | 0.608 ± 0.006

CCCC[n+]1ccn(C)c1.O=[N+]([O-])[O-] + O
Conditions | viscosity [mPa·s]
295.15 K, 101 kPa, x2 = 0.1659 | 73 ± 8
308 K, 100 kPa, x1 = 0.4463 | 14.67 ± 0.32
308 K, 100 kPa, x1 = 0.6298 | 29.49 ± 0.64
313 K, 100 kPa, x1 = 0.05634 | 1.464 ± 0.07
313 K, 100 kPa, x1 = 0.08219 | 2.196 ± 0.053
313 K, 100 kPa, x1 = 0.2637 | 6.31 ± 0.14

CCCn1cc[n+](CCC)c1.O=S(=O)([N-]S(=O)(=O)C(F)(F)F)C(F)(F)F + O
100 kPa, x2 = 0.2232
Conditions | viscosity [mPa·s]
303.15 K | 29.21 ± 0.25
313.15 K | 20.49 ± 0.18
333.15 K | 11.48 ± 0.1
348.15 K | 8.09 ± 0.07
363.15 K | 6 ± 0.05

Source: the CheMixHub ionic liquid set
